In patent US6642246B1 (priority 1999, dated 2003) one finds Kd data, which are given here for one substance.

pKd: −log10 of the molar value.

This assay addresses α7 nAChR subtype (Rattus norvegicus, UniProt Q05941). The class given is binding.

Chain of α7 nAChR subtype (Q05941 23-502 limits assumed): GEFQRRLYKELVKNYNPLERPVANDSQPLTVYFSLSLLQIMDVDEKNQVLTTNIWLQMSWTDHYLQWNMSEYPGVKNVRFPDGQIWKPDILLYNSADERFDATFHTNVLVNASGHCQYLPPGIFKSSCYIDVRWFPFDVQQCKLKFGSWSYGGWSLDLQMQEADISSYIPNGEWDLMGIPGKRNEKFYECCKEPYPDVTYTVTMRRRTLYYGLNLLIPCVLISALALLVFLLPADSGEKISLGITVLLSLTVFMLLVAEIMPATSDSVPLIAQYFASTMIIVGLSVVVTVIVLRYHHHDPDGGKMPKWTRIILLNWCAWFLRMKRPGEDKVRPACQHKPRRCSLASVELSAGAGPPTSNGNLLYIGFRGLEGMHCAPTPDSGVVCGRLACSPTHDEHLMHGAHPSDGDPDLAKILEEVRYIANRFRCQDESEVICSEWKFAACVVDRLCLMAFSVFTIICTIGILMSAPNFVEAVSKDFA

In the case of ^125I-α-Bungarotoxin [^125I-α-BTX], the pKd is 8.78.
